Among the data in PubChem BioAssay (NCI) are TGI values, retold here.

Test systems include EKVX NSCLC; HL-60(TB) leukemia; HOP-92 NSCLC; KM12 colon; MDA-MB-231 breast; NCI-H522 lung; SF-268 CNS; SNB-19 CNS; T-47D breast; UO-31 renal.
Assay in all cases: growth of human tumour cells (NCI), 48 h

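Following 48 hours of exposure in 96-well plates, responses at five concentrations were used to interpolate endpoints linearly. TGI: concentration producing complete growth inhibition.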

Regarding `O=C(NC12CC3CC(CC(C3)C1)C2)n1cnc2c(Cl)ncnc21`, the TGI with EKVX NSCLC is 71.8 µM; with HL-60(TB) leukemia, 16.9 µM; in the experiment on HOP-92 NSCLC, more than 100 µM; in the experiment with KM12 colon, more than 100 µM; in the experiment on MDA-MB-231 breast it was more than 100 µM; with NCI-H522 lung it was 97.5 µM. In addition, the TGI was 57.4 µM in the experiment on SF-268 CNS, more than 100 µM in the experiment on SNB-19 CNS, more than 100 µM with T-47D breast and more than 100 µM with UO-31 renal.
`c1ccc(C(OCCN2CC3CCC(C2)N3)c2ccccc2)cc1`: the TGI is more than 100 µM in the experiment on EKVX NSCLC; more than 100 µM with HL-60(TB) leukemia; 75.6 µM in the experiment on HOP-92 NSCLC; more than 100 µM with KM12 colon; more than 100 µM in the experiment with MDA-MB-231 breast; 93.1 µM in the experiment on NCI-H522 lung. For the same compound, the TGI in the experiment on SF-268 CNS, with SNB-19 CNS, in the experiment on T-47D breast and in the experiment on UO-31 renal was more than 100 µM in each case.
Regarding `COc1c(C(=O)CC2c3c(cc4oc(C)cc(=O)c4c3OC)OC(=N)C2c2nc3ccccc3[nH]2)c(O)c(OC)c2occc12` (stereo not given), the TGI in the experiment with EKVX NSCLC, with HL-60(TB) leukemia, in the experiment with HOP-92 NSCLC, in the experiment on KM12 colon, in the experiment with MDA-MB-231 breast and with NCI-H522 lung was more than 100 µM in each case. The TGI with SF-268 CNS, in the experiment with SNB-19 CNS, in the experiment with T-47D breast and in the experiment with UO-31 renal was more than 100 µM each time.
For `O=S1(=O)OCCOS(=O)(=O)C1C1c2ccccc2-c2ccccc21`, the TGI was more than 100 µM in the experiment with EKVX NSCLC; 58.9 µM in the experiment with HL-60(TB) leukemia; more than 100 µM in the experiment on HOP-92 NSCLC; more than 100 µM in the experiment on KM12 colon; more than 100 µM in the experiment on MDA-MB-231 breast; 64.5 µM in the experiment with NCI-H522 lung. The TGI is more than 100 µM in the experiment with SF-268 CNS, more than 100 µM in the experiment on SNB-19 CNS, more than 100 µM with T-47D breast and 93.2 µM with UO-31 renal.
For the compound `Cn1c(SCc2ccc([N+](=O)[O-])cc2)nnc1C12CC3CC(CC(C3)C1)C2`, the TGI with EKVX NSCLC, in the experiment on HL-60(TB) leukemia, with HOP-92 NSCLC, in the experiment on KM12 colon, in the experiment with MDA-MB-231 breast and in the experiment with NCI-H522 lung was more than 10 µM each time. Further, the TGI in the experiment with SF-268 CNS, in the experiment on SNB-19 CNS, in the experiment with T-47D breast and in the experiment with UO-31 renal was more than 10 µM each time.
`CC(NC(=O)C(NC(=O)C(NC(=O)C(F)(F)F)C(C)C)C(C)C)C(=O)Oc1c(Cl)c(Cl)c(Cl)c(Cl)c1Cl` (stereo not given): the TGI in the experiment on EKVX NSCLC, in the experiment on HL-60(TB) leukemia, with HOP-92 NSCLC, in the experiment with KM12 colon, in the experiment on MDA-MB-231 breast and with NCI-H522 lung was more than 100 µM in each case. Moreover, the TGI in the experiment with SF-268 CNS, in the experiment on SNB-19 CNS, with T-47D breast and in the experiment with UO-31 renal was more than 100 µM throughout.
On to `CN(CCCNC(=O)c1[nH]nc2c1ccc1ccccc12)CCCNC(=O)c1[nH]nc2c1ccc1ccccc12`, for which the TGI in the experiment on EKVX NSCLC was found to be 38.8 µM; in the experiment with HL-60(TB) leukemia, 10.4 µM; in the experiment with HOP-92 NSCLC, 28.3 µM; in the experiment with KM12 colon, 39.7 µM; in the experiment on MDA-MB-231 breast it was 23.4 µM; with NCI-H522 lung, 30.8 µM. In addition, the TGI with SF-268 CNS turned out to be 28.1 µM; with SNB-19 CNS it was 37.6 µM; with T-47D breast, 36.1 µM; with UO-31 renal, 31.4 µM.
Turning to `COc1ccc2cc(CNCCOCCOCCNCc3ccc4cc(OC)ccc4c3)ccc2c1`, the TGI stood at 3.21 µM in the experiment on EKVX NSCLC; 0.657 µM with HL-60(TB) leukemia; 3.05 µM in the experiment on HOP-92 NSCLC; 2.27 µM in the experiment with KM12 colon; 2.91 µM in the experiment on MDA-MB-231 breast; 3.49 µM in the experiment on NCI-H522 lung. For the same compound, the TGI worked out at 2.99 µM in the experiment with SF-268 CNS, 3.09 µM in the experiment on SNB-19 CNS, 3.22 µM with T-47D breast and 2.61 µM in the experiment with UO-31 renal.
Consider `OC[C@H](O)[C@@H](OCc1ccccc1)[C@H](NCc1ccccc1)c1cccs1`, for which the TGI with EKVX NSCLC, in the experiment on HL-60(TB) leukemia, in the experiment on HOP-92 NSCLC, with KM12 colon, in the experiment with MDA-MB-231 breast and with NCI-H522 lung was more than 100 µM in each case. Moreover, the TGI in the experiment on SF-268 CNS is more than 100 µM; with SNB-19 CNS, more than 100 µM; with T-47D breast it was more than 100 µM; with UO-31 renal, 68.8 µM.
As to `CCOC(=O)C(NS(=O)(=O)c1ccccc1)(C(F)(F)F)P(=O)(OCC(C)C)OCC(C)C` (stereo not given), the TGI in the experiment with EKVX NSCLC, in the experiment on HL-60(TB) leukemia, in the experiment with HOP-92 NSCLC, in the experiment with KM12 colon, with MDA-MB-231 breast and with NCI-H522 lung was more than 100 µM throughout. In addition, the TGI in the experiment on SF-268 CNS, in the experiment with SNB-19 CNS, with T-47D breast and in the experiment with UO-31 renal was more than 100 µM each time.
As for `CCCC(CCC(=O)O)(CCC(=O)O)[N+](=O)[O-]`, the TGI in the experiment with EKVX NSCLC, with HL-60(TB) leukemia, in the experiment on HOP-92 NSCLC, in the experiment on KM12 colon, in the experiment on MDA-MB-231 breast and with NCI-H522 lung was more than 100 µM throughout. In addition, the TGI in the experiment with SF-268 CNS, in the experiment with SNB-19 CNS, in the experiment with T-47D breast and in the experiment on UO-31 renal was more than 100 µM each time.
`Cc1[nH]c(-c2ccccc2)c(O)c1C(=O)OC1CC(C)CCC1C(C)C` (stereo not given): the TGI was determined as 23.9 µM with EKVX NSCLC; 42.6 µM in the experiment with HL-60(TB) leukemia; 32.7 µM in the experiment with HOP-92 NSCLC; 27.9 µM in the experiment with KM12 colon; 29 µM in the experiment with MDA-MB-231 breast; 26.6 µM in the experiment on NCI-H522 lung. Further, the TGI was found to be 29.4 µM in the experiment with SF-268 CNS, 31.1 µM in the experiment on SNB-19 CNS, 26.8 µM with T-47D breast and 26 µM in the experiment with UO-31 renal.
As for `CCOC(=O)/C(C(N)=O)=C(/O)c1cnccn1`, the TGI in the experiment with EKVX NSCLC, in the experiment on HL-60(TB) leukemia, with HOP-92 NSCLC, in the experiment with KM12 colon, in the experiment with MDA-MB-231 breast and in the experiment on NCI-H522 lung was more than 100 µM in each case. In addition, the TGI in the experiment on SF-268 CNS, in the experiment on SNB-19 CNS, in the experiment on T-47D breast and with UO-31 renal was more than 100 µM throughout.
On to `CC(=O)[C@H]1CC[C@@H]2[C@]1(C)CC=C1[C@]23C=C[C@]2(C[C@@H](O)CC[C@]12C)C(C(=O)O)C3C(=O)O` (stereo not given in full), for which the TGI in the experiment with EKVX NSCLC, with HL-60(TB) leukemia, in the experiment with HOP-92 NSCLC, in the experiment on KM12 colon, in the experiment with MDA-MB-231 breast and in the experiment on NCI-H522 lung was more than 100 µM throughout. Moreover, the TGI with SF-268 CNS, in the experiment on SNB-19 CNS, in the experiment with T-47D breast and in the experiment on UO-31 renal was more than 100 µM in each case.
For the compound `COC(=O)[C@@]1(Cc2ccc(OC(C)=O)cc2)Cc2cc3ccccc3n2N1`, the TGI with EKVX NSCLC is more than 100 µM; with HL-60(TB) leukemia, 80.8 µM; in the experiment with HOP-92 NSCLC it was more than 100 µM; with KM12 colon it was more than 100 µM; with MDA-MB-231 breast, more than 100 µM; in the experiment with NCI-H522 lung, more than 100 µM. Besides, the TGI in the experiment on SF-268 CNS, in the experiment on SNB-19 CNS, with T-47D breast and in the experiment with UO-31 renal was more than 100 µM in each case.
